Test results published in PubChem BioAssay (NCI).
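Test compounds were applied to cells in 96-well plates for 48 hours at 5 doses. GI50 = concentration required for 50% inhibition of growth. At the TGI there is no net growth.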

Assays:
Test in all cases: growth of human tumour cells (NCI), 48 h
786-0 renal = tested on: 786-0 renal
HCT-116 colon = tested on: HCT-116 colon
HCT-15 colon = tested on: HCT-15 colon
HOP-92 NSCLC = tested on: HOP-92 NSCLC
KM12 colon = tested on: KM12 colon
SF-295 CNS = tested on: SF-295 CNS
UACC-62 melanoma = tested on: UACC-62 melanoma
UO-31 renal = tested on: UO-31 renal
MDA-MB-435 = tested on: MDA-MB-435
RXF 393 renal = tested on: RXF 393 renal

Structure (SMILES) | GI50 (786-0 renal) [µM] | TGI (786-0 renal) [µM] | GI50 (HCT-116 colon) [µM] | TGI (HCT-116 colon) [µM] | GI50 (HCT-15 colon) [µM] | TGI (HCT-15 colon) [µM] | GI50 (HOP-92 NSCLC) [µM] | TGI (HOP-92 NSCLC) [µM] | GI50 (KM12 colon) [µM] | TGI (KM12 colon) [µM] | GI50 (SF-295 CNS) [µM] | TGI (SF-295 CNS) [µM] | GI50 (UACC-62 melanoma) [µM] | TGI (UACC-62 melanoma) [µM] | GI50 (UO-31 renal) [µM] | TGI (UO-31 renal) [µM] | GI50 (MDA-MB-435) [µM] | TGI (MDA-MB-435) [µM] | TGI (RXF 393 renal) [µM] | GI50 (RXF 393 renal) [µM]
CCC(=O)[O-].CCC(=O)[O-].N.N.N.N.[Co+3].[O-][Cl+3]([O-])([O-])[O-] | > 100 | > 100 | > 100 | > 100 | > 100 | > 100 | 27.2 | > 100 | > 100 | > 100 | > 100 | > 100 | > 100 | > 100 | > 100 | > 100 | – | – | – | –
COc1cc2c(c(OC)c1OC)C(=O)c1c-2n(CCCN)c(=O)c2cc([N+](=O)[O-])ccc12 | 0.481 | 1.04 | 0.128 | 0.274 | – | – | – | – | 0.161 | 0.369 | 1.64 | 3.39 | 9.16 | 24.2 | 1.89 | 3.57 | 1.07 | 2.4 | – | –
CC[O+]=c1cccc2ssnc1-2 | – | > 100 | – | > 100 | – | > 100 | – | – | – | > 100 | – | > 100 | – | > 100 | – | > 100 | – | – | > 100 | –
O=C(O/N=C1/CCC/C1=C\c1ccccc1)c1ccc(Cl)cc1 | – | > 100 | – | > 100 | – | > 100 | – | > 100 | – | > 100 | – | > 100 | – | > 100 | – | > 100 | – | – | > 31.6 | –
O=C(O)c1cc2c3c(c1)[C@H]1C=CC[C@H]1CN3CC1CC=CC21 (some centres undefined) | – | > 100 | – | > 100 | – | > 100 | – | > 100 | – | > 100 | – | > 100 | – | > 100 | – | > 100 | – | – | > 100 | –
CC(=O)[CH-]C(=O)c1ccccc1.CC(=O)[CH-]C(=O)c1ccccc1.[O-]c1ccc(O)cc1.[O-]c1ccc(O)cc1.[Ti+4] | 13.2 | 26 | 15.1 | 28.3 | 15.7 | 37.6 | 14.1 | 28.9 | 15.3 | 33 | 16.5 | 34.3 | 16.2 | 31.3 | 23.7 | 49.5 | – | – | 20.5 | 6.64
CC(C)c1cccc2sc(NC(=O)C(=O)CC(=O)c3ccc(F)cc3)nc12 | – | > 100 | – | > 100 | – | > 100 | – | > 100 | – | > 100 | – | > 100 | – | > 100 | – | > 100 | – | – | > 100 | –
COC(=O)/C1=C/C2CC(/C=C(/c3ccccc3)C(=O)O1)C2 | – | 89.1 | – | 56.6 | – | 53.1 | – | – | – | 62 | – | > 100 | – | 67.4 | – | > 100 | – | – | 78 | –
NC(N)=NS(=O)(=O)c1ccc(NC(=O)c2ccc(Cl)c3c(Nc4ccc(S(=O)(=O)N=C(N)N)cc4)c4ccccc4nc23)cc1 | – | > 100 | – | – | – | > 100 | – | 79.9 | – | > 100 | – | > 100 | – | > 100 | – | > 100 | – | – | > 100 | –
CP(=O)(CCSc1ccccc1)c1ccccc1 (centres undefined) | – | > 100 | – | > 100 | – | > 100 | – | > 100 | – | – | – | > 100 | – | > 100 | – | > 100 | – | – | > 100 | –
N#CC(C(=N/NC(N)=S)/C(=N\NC(N)=S)C(C#N)c1ccccc1)c1ccccc1 (centres undefined) | – | > 10 | – | > 10 | – | > 10 | – | > 10 | – | > 10 | – | > 10 | – | > 10 | – | > 10 | – | – | > 10 | –
[O-]c1c(-c2ccccc2)[se]c(-c2ccccc2)[n+]1-c1ccccc1 | – | 22.5 | – | 11.4 | – | 31.2 | – | 38.1 | – | 23.1 | – | 12.1 | – | 27.5 | – | 9.84 | – | – | 8.45 | –
CC1=C(CC/C(C)=C/CCC2(C)CCC([C@H](C)C(=O)O)OO2)C(C)(C)CCC1 (some centres undefined) (tested in a mixture with another compound) | – | > 100 | – | > 100 | – | – | – | > 100 | – | > 100 | – | > 100 | – | – | – | > 100 | – | – | > 100 | –
C=CC1(C)/C(=N\O)C(C)(CC)C(=O)N1O (centres undefined) | – | > 100 | – | > 100 | – | > 100 | – | > 100 | – | > 100 | – | > 100 | – | > 100 | – | > 100 | – | – | > 100 | –
CCC1(c2ccncc2)CCC(=O)NC1=O (centres undefined) | – | > 100 | – | > 100 | – | > 100 | – | > 100 | – | > 100 | – | > 100 | – | > 100 | – | > 100 | – | – | > 100 | –
O=C(/C=C/c1ccccc1)c1ccc(O)c(CN2CCN(c3cc4c(cc3F)c(=O)c(C(=O)O)cn4C3CC3)CC2)c1 | 0.961 | > 100 | 0.43 | > 100 | 2.64 | > 100 | – | – | 1.69 | 21 | 2.05 | 26.1 | 1.67 | > 100 | – | – | 1.5 | 25.7 | 15.8 | 1.55
CC(=O)C1C(=O)C(=O)N(c2ccc(Cl)cc2C)C1=O (centres undefined) | – | > 100 | – | > 100 | – | > 100 | – | > 100 | – | > 100 | – | > 100 | – | > 100 | – | > 100 | – | – | > 100 | –
COc1ccc2c3c([nH]c2c1[N+](=O)[O-])C(C)N(C(=O)/C=C/c1ccccc1)CC3 (centres undefined) | – | 25.8 | – | – | – | > 100 | – | – | – | > 100 | – | 5.88 | – | 9.06 | – | > 100 | – | – | 24.1 | –
COc1ccc(-c2ccc(=O)oc2-c2cc(OC)c(OC)c(OC)c2)cc1O | < 0.0228 | 13.9 | 0.0242 | > 100 | 0.0138 | > 20.5 | – | > 100 | < 0.0248 | > 35.8 | 0.0157 | > 100 | < 0.0402 | > 100 | < 0.0208 | > 100 | – | – | 0.011 | < 0.01
